Results taken from patent publication US7989464B2, “mGluR1 antagonists as therapeutic agents” (Schering Corporation, priority 2004, dated 2011).
pIC50: −log10 of the molar value. Read-outs that look alike come from different tables or passages of the source.

Target: T1, hmGluR1 receptor (Homo sapiens, UniProt Q13255)
T1 construct: expressed in transfected cells
Assay: IC50 determination: intracellular calcium mobilization (FLIPR) upon Quisqualate stimulation in CHO cells stably expressing hmGluR1
Type: cell-based
Settings: against Quisqualate 1 μM (EC80)
Procedure: A CHO cell line stably expressing hmGluR1 receptor was established. One day prior to assay, cells were split in growth media at concentration of 50,000 cells/well in a volume of 100 μl and seeded into black clear-bottom 96-well plates. After two to six hours, when cells were well attached to the plate, growth medium was replaced with assay medium (100 μL) consisting of DMEM high glucose, supplemented with GPT (1 U/mL) and Sodium pyruvate, 1 mM. Following overnight incubation, medium was discarded and cells were loaded for 2 h with dye from the Calcium 3 Assay Reagent Kit (Molecular Devices, # R8033), prepared according to manufacturers' instructions. […] Test compounds were added 10 minutes before Quisqualate.

[1] = FLIPR calcium mobilization, read-out: IC50 Class
[2] = class symbols, read-out: mGIuR 1 IC50
[3] = FLIPR calcium mobilization, read-out: mGluR1 IC50

T1 sequence (Q13255 19-1194): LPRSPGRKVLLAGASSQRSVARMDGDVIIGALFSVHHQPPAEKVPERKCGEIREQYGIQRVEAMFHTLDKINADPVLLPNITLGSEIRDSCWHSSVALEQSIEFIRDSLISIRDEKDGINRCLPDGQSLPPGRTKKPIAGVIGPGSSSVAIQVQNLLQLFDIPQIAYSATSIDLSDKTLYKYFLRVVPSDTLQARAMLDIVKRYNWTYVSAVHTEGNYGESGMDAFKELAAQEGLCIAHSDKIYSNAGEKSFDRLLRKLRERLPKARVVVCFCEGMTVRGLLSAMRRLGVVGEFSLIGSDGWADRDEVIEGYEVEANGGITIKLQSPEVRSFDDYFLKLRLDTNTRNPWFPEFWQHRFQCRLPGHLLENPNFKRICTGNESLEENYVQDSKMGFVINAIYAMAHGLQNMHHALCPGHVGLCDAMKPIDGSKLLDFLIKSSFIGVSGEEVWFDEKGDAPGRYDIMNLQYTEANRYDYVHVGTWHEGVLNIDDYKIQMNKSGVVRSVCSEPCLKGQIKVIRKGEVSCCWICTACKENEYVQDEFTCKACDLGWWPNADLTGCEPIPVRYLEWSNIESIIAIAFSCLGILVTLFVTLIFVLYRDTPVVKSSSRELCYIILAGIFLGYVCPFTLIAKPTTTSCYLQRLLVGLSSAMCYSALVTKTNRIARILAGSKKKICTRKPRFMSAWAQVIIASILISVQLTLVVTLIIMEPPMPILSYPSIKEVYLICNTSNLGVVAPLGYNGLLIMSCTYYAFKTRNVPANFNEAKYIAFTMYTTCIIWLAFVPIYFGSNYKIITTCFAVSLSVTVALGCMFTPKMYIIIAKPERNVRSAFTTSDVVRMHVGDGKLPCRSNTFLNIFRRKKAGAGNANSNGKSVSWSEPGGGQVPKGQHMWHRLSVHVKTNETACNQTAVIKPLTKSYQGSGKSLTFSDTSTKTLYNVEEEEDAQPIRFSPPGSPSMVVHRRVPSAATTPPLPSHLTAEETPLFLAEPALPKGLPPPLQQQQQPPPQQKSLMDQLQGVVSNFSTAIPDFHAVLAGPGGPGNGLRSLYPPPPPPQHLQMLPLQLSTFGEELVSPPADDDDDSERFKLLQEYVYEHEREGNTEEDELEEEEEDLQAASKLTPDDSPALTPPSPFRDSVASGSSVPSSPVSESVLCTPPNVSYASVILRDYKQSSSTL

Row | pIC50 [1] | pIC50 [2] | SMILES | other results
1 | > 7.30 | – | COc1ccc(-n2cnc3c(sc4nc(N)cc(N(C)C)c43)c2=O)cc1 [59F] | –
2 | 6.00 to 6.82 | – | Cc1ccc(-n2cnc3c(sc4ncnc(NCc5cccs5)c43)c2=O)cc1 [95FV] | –
3 | – | 6.00 to 6.82 | Cc1ccc(-n2cnc3c(sc4ncc(N)cc43)c2=O)cc1 [147A] | –
4 | 6.82 to 7.30 | – | Cc1ccc(-n2cnc3c(sc4ncnc(NCC5CC5)c43)c2=O)cc1 [95DP] | –
5 | – | 6.00 to 6.82 | CN(C)c1cccc2sc3c(=O)n(-c4ccc5scnc5c4)cnc3c12 [103F] | –
6 | – | 6.00 to 6.82 | CN(C)c1cncc2sc3c(=O)n(-c4ccccc4)cnc3c12 [37D] | –
7 | – | 6.82 to 7.30 | CCc1cc(N(C)C)c2c(n1)sc1c(=O)n(-c3ccc(C)cc3)cnc12 [87B] | –
8 | > 7.30 | – | COCCNc1ncnc2sc3c(=O)n(-c4ccc(Cl)cc4)cnc3c12 [95DI] | –
9 | – | < 6.00 | CN(C)c1ccnc2sc3c(=O)n(N)c(-c4ccccc4)nc3c12 [65E] | –
10 | 6.00 to 6.82 | – | O=c1c2sc3nccc(Cl)c3c2ncn1-c1ccc(Cl)cc1 [57E] | –
11 | > 7.30 | – | COc1ccc(-n2cnc3c(sc4nc(Cl)cc(N(C)C)c43)c2=O)cc1 [57C] | –
12 | – | > 7.30 | COc1ccc(-n2c(C)nc3c(sc4nccc(N(C)C)c43)c2=O)cc1 [116D] | –
13 | – | < 6.00 | Cc1ccc(-n2cnc3c([nH]c4nccc(N(C)C)c43)c2=O)cc1 [135A] | –
14 | > 7.30 | – | COc1ccc(-n2cnc3c(sc4ncnc(NC5CC5)c43)c2=O)c(C)c1 [95AW] | –
15 | – | < 6.00 | COc1ccc(Cn2c3nccc(N(C)C)c3c3ncn(-c4ccc(C)cc4)c(=O)c32)cc1 [134H] | –
16 | – | 6.00 to 6.82 | CCNc1ncnc2sc3c(=O)n(-c4ccc(OC(F)(F)F)cc4)cnc3c12 [95V] | –
17 | < 6.00 | – | CN(C)c1cccc2sc3c(=O)n(-c4ccc(Cl)c(Cl)c4)cnc3c12 [103J] | –
18 | > 7.30 | – | C#CCNc1ncnc2sc3c(=O)n(-c4ccc5occc5c4)cnc3c12 [95ES] | –
19 | 6.00 to 6.82 | – | O=c1c2sc3ncccc3c2ncn1-c1ccc(Cl)cc1 [183B] | –
20 | > 7.30 | – | Cc1ccc(-n2cnc3c(sc4nccc(C(C)C)c43)c2=O)cc1 [29F] | –
21 | – | > 7.30 | CCN(C)c1ccnc2sc3c(=O)n(-c4ccccc4)c(C)nc3c12 [113D] | –

Row | pIC50 [1] | pIC50 [2] | SMILES | other results
22 | > 7.30 | – | CCc1ccnc2sc3c(=O)n(-c4ccc(OC)cc4)cnc3c12 [29I] | –
23 | > 7.30 | – | C=C(C)CNc1ncnc2sc3c(=O)n(-c4ccc5sccc5c4)cnc3c12 [95FE] | –
24 | > 7.30 | – | CCc1ccnc2sc3c(=O)n(-c4ccc(C)cc4)cnc3c12 [29G] | –
25 | – | > 7.30 | CNc1ccnc2sc3c(=O)n(-c4ccccc4)c(C)nc3c12 [113E] | –
26 | > 7.30 | – | O=c1c2sc3ncnc(NC4CC4)c3c2ncn1-c1ccc(Br)cc1 [95AU] | pIC50 [3]: 8.86
27 | – | 6.00 to 6.82 | CCCc1nc2c(sc3nccc(N(C)C)c32)c(=O)n1-c1ccc(OC)cc1 [116F] | –
28 | – | < 6.00 | CN(C)c1ccnc2c1c1ncn(-c3ccc(OC(F)F)cc3)c(=O)c1n2C [134D] | –
29 | > 7.30 | – | Cc1ccc(-n2cnc3c(sc4nc(S)nc(N)c43)c2=O)cc1 [71F] | –
30 | > 7.30 | – | C=CCOc1ccnc2sc3c(=O)n(-c4ccc(Cl)cc4)cnc3c12 [66F] | –
31 | > 7.30 | – | C#CCOc1ccnc2sc3c(=O)n(-c4ccc(Cl)cc4)cnc3c12 [66G] | –
32 | – | < 6.00 | CSc1ccc(-n2cnc3c4c(N(C)C)ccnc4n(C)c3c2=O)cc1 [134C] | –
33 | < 6.00 | – | COc1ccc(-n2cnc3c(sc4ncnc(Nc5ccccc5Cl)c43)c2=O)cc1 [190N] | –
34 | > 7.30 | – | CNc1ncnc2sc3c(=O)n(-c4ccc5scnc5c4)cnc3c12 [95BG] | –
35 | 6.82 to 7.30 | – | C=C(C)CNc1ncnc2sc3c(=O)n(-c4ccc(OC)c(F)c4)cnc3c12 [95FB] | –
36 | 6.00 to 6.82 | – | COc1ccc(-n2cnc3c(sc4ncnc(Nc5ccc(Cl)cc5)c43)c2=O)cc1 [190E] | –
37 | – | 6.00 to 6.82 | Cc1ccc(-n2c(C)nc3c(sc4nccc(NC5CC5)c43)c2=O)cc1 [113J] | –
38 | > 7.30 | – | C#CCNc1ncnc2sc3c(=O)n(-c4ccc(F)cc4)cnc3c12 [95ER] | –
39 | – | < 6.00 | O=C(Nc1ccnc2sc3c(=O)n(C4CCCCC4)cnc3c12)c1ccco1 [73E] | –
40 | – | > 7.30 | CCN(C)c1ncnc2sc3c(=O)n(-c4ccc(OC(F)F)cc4)cnc3c12 [95T] | –
41 | 6.82 to 7.30 | – | C#CCNc1nncc2sc3c(=O)n(-c4ccc(C)cc4)cnc3c12 [167J] | –
42 | 6.00 to 6.82 | – | CCNc1nncc2sc3c(=O)n(-c4ccc(C)cc4)cnc3c12 [167I] | –

More lines, now with the values behind:

Row | SMILES | pIC50 [1] | pIC50 [2] | other results
43 | COc1ccc(-n2cnc3c(sc4ncc(Br)c(N(C)C)c43)c2=O)cc1Br [compound 149] | – | < 6.00 | –
44 | Cc1ccc(-n2cnc3c(sc4nccc(NCCN(C)C)c43)c2=O)cc1 [28BA] | – | 6.00 to 6.82 | –
45 | Cc1ccc(-n2cnc3c(sc4nccc(NN)c43)c2=O)cc1 [28DK] | 6.00 to 6.82 | – | –
46 | CCc1ccc(-n2cnc3c(sc4nccc(OC)c43)c2=O)cc1 [25G] | 6.00 to 6.82 | – | –
47 | CN(C)c1ccnc2sc3c(=O)n(C4CCCC(C(=O)O)C4)cnc3c12 (centres unmarked) [28EJ] | < 6.00 | – | –
48 | CCCOc1ccc(-n2cnc3c(sc4nccc(N(C)C)c43)c2=O)cc1 [7AG] | – | < 6.00 | –
49 | CNc1ccnc2sc3c(=O)n(-c4ccc(F)cc4)cnc3c12 [28IB] | > 7.30 | – | –
50 | NC(=O)CNc1ccnc2sc3c(=O)n(-c4ccc(F)cc4)cnc3c12 [28GG] | 6.00 to 6.82 | – | –
51 | C=C(C)CNc1ccnc2sc3c(=O)n(-c4ccc(OC)c(F)c4)cnc3c12 [28FE] | 6.82 to 7.30 | – | –
52 | CN(C)c1ccnc2sc3c(=O)n(CCO)cnc3c12 [15A] | – | < 6.00 | –
53 | CN(C)c1ccnc2sc3c(=O)n(CCc4c(Cl)cccc4Cl)cnc3c12 [28EN] | 6.00 to 6.82 | – | –
54 | CCN(C)c1ccnc2sc3c(=O)n(-c4ccc(OC)cc4F)cnc3c12 [28BW] | > 7.30 | – | –
55 | CN(C)c1ccnc2sc3c(=O)n(-c4ccc5c(c4)CC=C5)cnc3c12 [7BL] | – | > 7.30 | –
56 | O=c1c2sc3nccc(NC4CC4)c3c2ncn1-c1ccc2c(c1)CCO2 [28CE] | > 7.30 | – | –
57 | Cc1ccc(-n2cnc3c(sc4nccc(NC5CC5)c43)c2=O)cc1 [28AP] | – | > 7.30 | –
58 | CN(C)c1ccnc2sc3c(=O)n(-c4ccsc4)cnc3c12 [15AA] | – | > 7.30 | –
59 | COc1cc(-n2cnc3c(sc4nccc(N(C)C)c43)c2=O)ccc1Br [7DT] | – | 6.00 to 6.82 | –
60 | COCCCNc1ccnc2sc3c(=O)n(-c4ccc(OC)cc4)cnc3c12 [28HL] | > 7.30 | – | –
61 | CCN(C)c1ccnc2sc3c(=O)n(-c4cccc(Cl)c4)cnc3c12 [28CA] | > 7.30 | – | –
62 | C=CCN(C)c1ccnc2sc3c(=O)n(-c4ccc(C)cc4)cnc3c12 [28AC] | – | > 7.30 | –
63 | COc1ccc(-n2cnc3c(sc4nccc(NC5CCCCC5)c43)c2=O)cc1 [28E] | – | < 6.00 | –
64 | CN(C)c1ccnc2sc3c(=O)n(C4CCC(C(C)(C)C)CC4)cnc3c12 (centres unmarked) [15M] | – | < 6.00 | –
65 | COc1ccc2nc(-n3cnc4c(sc5nccc(N(C)C)c54)c3=O)sc2c1 [7BP] | – | < 6.00 | –
66 | COCCNc1ccnc2sc3c(=O)n(-c4ccc(OC)cc4)cnc3c12 [28DC] | > 7.30 | – | –
67 | O=c1c2sc3nccc(N4CCOCC4)c3c2ncn1C1CCCCC1 [28O] | – | < 6.00 | –
68 | COc1ccnc2sc3c(=O)n(-c4ccc(Cl)cc4Cl)cnc3c12 [28FV] | < 6.00 | – | –

Row | SMILES | pIC50 [1] | pIC50 [2] | other results
69 | O=c1c2sc3nccc(NCCCCO)c3c2ncn1-c1ccc(Cl)cc1 [28GE] | > 7.30 | – | pIC50 [3]: 9.55
70 | CN(C)c1ccnc2sc3c(=O)n(-c4cccc(Br)c4)cnc3c12 [7DL] | – | > 7.30 | –
71 | Cc1nc2ccc(-n3cnc4c(sc5nccc(N(C)C)c54)c3=O)cc2[nH]1 [7BV] | – | < 6.00 | –
72 | O=c1c2sc3nccc(NCCCO)c3c2ncn1-c1ccc2c(c1)CCO2 [28CJ] | > 7.30 | – | –
73 | Cc1ccc(-n2cnc3c(sc4ncc(I)c(N)c43)c2=O)cc1 [compound 175] | > 7.30 | – | pIC50 [3]: 9.12
74 | CN(C)c1ccnc2sc3c(=O)n(-c4cccc(Cl)c4)cnc3c12 [7L] | – | > 7.30 | –
75 | CNc1c(Br)cnc2sc3c(=O)n(-c4ccc(OC)cc4)cnc3c12 [compound 152] | – | > 7.30 | –
76 | O=c1c2sc3nccc(NC4CC4)c3c2ncn1C1CCCCC1 [28S] | – | > 7.30 | –
77 | Cc1ccc(-n2cnc3c(sc4nccc(NC5CCC(O)CC5)c43)c2=O)cc1 (centres unmarked) [28DE] | 6.00 to 6.82 | – | –
78 | Cc1ccc(-n2cnc3c(sc4nccc(NC5CCOCC5)c43)c2=O)cc1 [28DG] | 6.00 to 6.82 | – | –
79 | C#CCNc1ccnc2sc3c(=O)n(-c4ccc(OC)c(F)c4)cnc3c12 [28DW] | > 7.30 | – | –
80 | COc1ccc(-n2cnc3c(sc4nccc(Nc5ccccn5)c43)c2=O)cc1 [28FO] | 6.00 to 6.82 | – | –
81 | CN(C)c1ccnc2sc3c(=O)n(C4Cc5ccccc5C4)cnc3c12 [15Y] | – | > 7.30 | –
82 | COCCCNc1ccnc2sc3c(=O)n(-c4ccc(C)cc4)cnc3c12 [28CZ] | > 7.30 | – | –
83 | CCc1ncnc2sc3c(=O)n(-c4ccc(Cl)cc4)cnc3c12 [compound 202] | > 7.30 | – | –
84 | CCNc1ccnc2sc3c(=O)n(-c4ccc(Cl)cc4)cnc3c12 [28HZ] | > 7.30 | – | pIC50 [3]: 8.91
85 | CCCc1ccc(-n2cnc3c(sc4nccc(N(C)C)c43)c2=O)cc1 [7BK] | – | 6.00 to 6.82 | –
86 | COc1ccnc2sc3c(=O)n(-c4ccc(C)cc4)cnc3c12 [25C] | – | 6.82 to 7.30 | –
87 | COc1ccc(-n2cnc3c(sc4nccc(N5CC(O)C5)c43)c2=O)cc1 [28DJ] | 6.82 to 7.30 | – | –
88 | CCN(C)c1ccnc2sc3c(=O)n(-c4ccc(OC)cc4C)cnc3c12 [28BV] | > 7.30 | – | –
89 | CCNc1ccnc2sc3c(=O)n(-c4ccc5occc5c4)cnc3c12 [28BG] | > 7.30 | – | –
90 | COc1ccc(-n2cnc3c(sc4nccc(N(C)C)c43)c2=O)cc1C [7DJ] | – | > 7.30 | –
91 | CN(C)c1ccnc2sc3c(=O)n(-c4cccc5nonc45)cnc3c12 [7BR] | – | 6.00 to 6.82 | –
92 | CNc1c(C#N)cnc2sc3c(=O)n(C4CCCCC4)cnc3c12 [compound 48] | – | 6.00 to 6.82 | –
93 | CN(CCO)c1ccnc2sc3c(=O)n(-c4ccc5occc5c4)cnc3c12 [28BE] | > 7.30 | – | –
94 | CN(C)c1ccnc2sc3c(=O)n(-c4ccc(Br)cc4)cnc3c12 [7H] | – | > 7.30 | –
